# Read-outs that look alike come from different tables or passages of the source.
# Assay: Mouse PK&BBB (pharmacokinetics and brain penetration)
# Type: in vivo, CD-1 mice
# Procedure: In this assay, the pharmacokinetic characteristics and ability to penetrate the blood-brain barrier of the compounds of the present application were assayed after administration of some of the compounds of the present application to SD rats, CD-1 mice or beagle dogs by single oral administration and intravenous injection.
# (§1) 1. Intravenous (IV) injection group: an appropriate amount of the assay compound was weighed, and completely dissolved in an appropriate volume of vehicle. The mixture was stirred, vortexed and/or sonicated. Once a solution was obtained, the vehicle was gradually added to a final volume to reach the target concentration. The solution was vortexed, and sonicated to obtain a homogeneous solution. The solution was filtered through a 0.22 m PVDF membrane.
# as §1, with “2. Oral (PO)” for “1. Intravenous (IV) injection”, “solution.” for “solution. The solution was filtered through a 0.22 m PVDF membrane.”
# Meanwhile, the IV group was not fasted and the PO group was fasted overnight (>12 hrs) and given food 2 hrs after drug administration. All animals had free access to water. The dosing regimen and pharmacokinetic sampling regimen are given in Table 10 and Table 11 below, respectively.
# Mice were administered according to the above protocol, and blood and brain tissue samples were collected and processed at predetermined time points (collection and processing were performed according to conventional methods in the art).
# The brain was weighed and homogenized by adding 4 times of ultrapure water. Six times volume of acetonitrile was added respectively to the whole blood samples and brain homogenate (20 times volume of acetonitrile was added to the whole blood sample of mouse PK). The mixture was vortexed for 1 min and then centrifuged at 4° C., 4500 rpm for 15 min. According to the instrument response, the supernatant was diluted with diluent and the sample was analyzed by LC/MS.
# Pharmacokinetic parameters were calculated using WinNonlin software. The following pharmacokinetic parameters were calculated if appropriate plasma/whole blood drug concentration-time data were available: CL (clearance); Vd (apparent volume of distribution); T1/2 (elimination half-life time); Cmax (peak concentration); Tmax (time to peak); AUC (area under plasma drug concentration-time curve); MRT (mean retention time); F % (bioavailability).
# [1] = CD-1, mouse, whole blood, iv, 2 mg/kg, IV 2 mg/kg, read-out: Blood drug concentration
# [2] = CD-1, mouse, whole blood, po, 20 mg/kg, PO 20 mg/kg, read-out: Blood drug concentration
compound,measurement,setting,value
O=C(C1CCN(c2cc(-c3cc(OCCCO)ccc3F)ccn2)CC1)N1N=CC[C@H]1c1cc(F)cc(F)c1 (racemic) [Example 40],Kp at 2 h,"CD-1, brain / whole blood, PO 20 mg/kg, 2 h after administration, read-out: Brain/blood ratio",1.85
same,concentration at 2 h,"CD-1, mouse, brain, po, 20 mg/kg, PO 20 mg/kg, 2 h after administration, read-out: Brain concentration",244 ng/g
same,concentration at 0 h,[1],0 µg/mL
same,concentration at 0.083 h,"CD-1, mouse, whole blood, iv, 2 mg/kg, IV 2 mg/kg, 0.083 hr, read-out: Blood drug concentration",0.632 ± 0.086 µg/mL
same,concentration at 0.25 h,[1],0.323 ± 0.081 µg/mL
same,concentration at 0.5 h,[1],0.15 ± 0.053 µg/mL
same,concentration at 1 h,[1],0.0607 ± 0.0285 µg/mL
same,concentration at 2 h,"CD-1, mouse, whole blood, iv, 2 mg/kg, IV 2 mg/kg, 2 hr, read-out: Blood drug concentration",0.0123 ± 0.0084 µg/mL
same,concentration at 4 h,[1],0.00177 ± 0.00112 µg/mL
same,concentration at 7 hr,[1],0.000854 µg/mL
same,concentration at 0 h,[2],0 µg/mL
same,concentration at 0.25 h,[2],0.284 ± 0.026 µg/mL
same,concentration at 0.5 h,[2],0.405 ± 0.046 µg/mL
same,concentration at 1 h,[2],0.399 ± 0.077 µg/mL
same,concentration at 2 h,"CD-1, mouse, whole blood, po, 20 mg/kg, PO 20 mg/kg, 2 hr, read-out: Blood drug concentration",0.163 ± 0.002 µg/mL
same,concentration at 4 h,[2],0.0349 ± 0.019 µg/mL
same,concentration at 7 hr,[2],0.00485 ± 0.00383 µg/mL
same,concentration at 2 h,"CD-1, mouse, whole blood, po, 20 mg/kg, PO 20 mg/kg, whole blood, 2 h after administration, read-out: Blood drug concentration",0.132 µg/mL
same,AUC(0-inf),"CD-1, whole blood, IV 2 mg/kg",0.308 ± 0.082 µg·h/mL
same,AUC(0-t),"CD-1, whole blood, IV 2 mg/kg",0.307 ± 0.082 µg·h/mL
same,Vd,"CD-1, whole blood, IV 2 mg/kg",6.97 ± 1.13 L/kg
same,half-life,"CD-1, whole blood, IV 2 mg/kg",45.3 ± 17.9 min
same,clearance,"CD-1, whole blood, IV 2 mg/kg, read-out: Cl—obs",6.84 ± 1.83 L/h/kg
same,AUC(0-inf),"CD-1, whole blood, PO 20 mg/kg",0.869 ± 0.057 µg·h/mL
same,AUC(0-t),"CD-1, whole blood, PO 20 mg/kg",0.861 ± 0.054 µg·h/mL
same,Cmax,"CD-1, whole blood, PO 20 mg/kg",0.421 ± 0.064 µg/mL
same,Tmax,"CD-1, whole blood, PO 20 mg/kg",50 ± 17.3 min
same,half-life,"CD-1, whole blood, PO 20 mg/kg",58 ± 12.5 min
same,bioavailability,"CD-1, whole blood, PO 20 mg/kg vs IV 2 mg/kg",28.2 ± 1.9%
